Assays:
Alexandergrass = assay: Test D Alexandergrass; type: in vivo, Brachiaria plantaginea; details: Preemergence, 0 to 100 scale
Procedure, shortened: (§1)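 Greenhouse pots, sandy loam, single species per pot. Preemergence tests: soil-surface application ≤1 day after planting. Compound formulated in non-phytotoxic solvent with surfactant. Visual rating 14–21 DAT, scale 0–100.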

bermuda-grass = assay: Test D bermudagrass; type: in vivo, Cynodon dactylon; details: Preemergence, 0 to 100 scale
Procedure, shortened: as §1

common pursiane = assay: Test D common purslane; type: in vivo, Portulaca oleracea; details: Preemergence, 0 to 100 scale
Procedure, shortened: as §1

common ragweed = assay: Test D common ragweed; type: in vivo, Ambrosia elatior; details: Preemergence, 0 to 100 scale
Excerpt: (§2) Seeds, tubers, or plant parts of Alexandergrass (Brachiaria plantaginea), bermuda-grass (Cynodon dactylon), common pursiane (Portulaca oleracea), common ragweed (Ambrosia elatior), common groundsel (Senecio vulgaris), dallisgrass (Paspalum dilatatum), goosegrass (Eleusine indica), guineagrass (Panicum maximum), itchgrass (Rottboellia exaltata), Johnson grass (Sorghum halepense), large crabgrass (Digitaria sanguinalis), pitted morningglory (Ipomoea lacunosa), purple nutsedge (Cyperus rotundus), sandbur (Cenchrus echinatus), sourgrass (Trichachne insularis), Spanishneedles (Bidens bipinnata), surinam grass (Brachiaria decumbens) and tall mallow (Malva sylvestris) were planted into greenhouse pots of flats containing greenhouse planting medium. Plant species were grown in separate pots or individual compartments. Preemergence applications were made within one day of planting the seed or plant part.
(§3) Test chemicals were formulated in a non-phytotoxic solvent mixture which included a surfactant and applied preemergence to the surface of the pot containing seeds in a sandy loam soil. Untreated control pots and treated pots were placed in the greenhouse for growth and visually evaluated for injury 14 to 21 days after herbicide application. Plant response ratings, summarized in Table C, are based on a 0 to 100 scale where 0 is no injury and 100 is complete control. A dash (−) response means no test result.

common groundsel = assay: Test D common groundsel; type: in vivo, Senecio vulgaris; details: Preemergence, 0 to 100 scale
Excerpt: as §2, §3

dallisgrass = assay: Test D dallisgrass; type: in vivo, Paspalum dilatatum; details: Preemergence, 0 to 100 scale
Procedure, shortened: as §1

guineagrass = assay: Test D guineagrass; type: in vivo, Panicum maximum; details: Preemergence, 0 to 100 scale
Procedure, shortened: as §1

itchgrass = assay: Test D itchgrass; type: in vivo, Rottboellia exaltata; details: Preemergence, 0 to 100 scale
Procedure, shortened: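 Scoring used a 0–100 visual injury scale, with 0 meaning no effect and 100 complete control, assessed 14–21 days after application alongside untreated pots. Preemergence treatments went onto sandy loam surfaces of separately potted seeds within a day of sowing.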

large crabgrass = assay: Test D large crabgrass; type: in vivo, Digitaria sanguinalis; details: Preemergence, 0 to 100 scale
Procedure, shortened: as §1

pitted morningglory = assay: Test D pitted morningglory; type: in vivo, Ipomoea lacunosa; details: Preemergence, 0 to 100 scale
Excerpt: as §2
Test chemicals were formulated in a non-phytotoxic solvent mixture which included a surfactant and applied preemergence to the surface of the pot containing seeds in a sandy loam soil. Untreated control pots and treated pots were placed in the greenhouse for growth and visually evaluated for injury 14 to 21 days after herbicide application. […] A dash (−) response means no test result.

purple nutsedge = assay: Test D purple nutsedge; type: in vivo, Cyperus rotundus; details: Preemergence, 0 to 100 scale
Excerpt: as §2, §3

Spanishneedles = assay: Test D Spanishneedles; type: in vivo, Bidens bipinnata; details: Preemergence, 0 to 100 scale
Excerpt: as §2, §3

surinam grass = assay: Test D surinam grass; type: in vivo, Brachiaria decumbens; details: Preemergence, 0 to 100 scale
Excerpt: as §2, §3

Green foxtail [1] = assay: Test D green foxtail; type: in vivo; details: Preemergence, 0 to 100 scale
Procedure, shortened: as §1

Green foxtail [2] = assay: Test D green foxtail; type: in vivo
Procedure, shortened: as §1

[3] = Rate 16 g/ha, 0 no injury, 100 complete control
[4] = Rate 32 g/ha, 0 no injury, 100 complete control
[5] = Rate 64 g/ha, 0 no injury, 100 complete control
[6] = Rate 125 g/ha, 0 no injury, 100 complete control
[7] = Rate 64 g/ha, Preemergence; 0 to 100 scale, 0 no injury, 100 complete control
[8] = Rate 125 g/ha, Preemergence; 0 to 100 scale, 0 no injury, 100 complete control

## COc1ccccc1-n1c(=O)on(C(=O)N(c2ccc(F)cc2)C(C)C)c1=O [Compound 30]
Alexandergrass; [3]
  Plant response rating, Alexandergrass: 0
Alexandergrass; [4]
  Plant response rating, Alexandergrass: 0
Alexandergrass; [5]
  Plant response rating, Alexandergrass: 40
Alexandergrass; [6]
  Plant response rating, Alexandergrass: 50
Alexandergrass; Rate 250 g/ha
  Plant response rating, Alexandergrass: 80
Alexandergrass; Rate 500 g/ha
  Plant response rating, Alexandergrass: 90
bermuda-grass; [3]
  Plant response rating, Bermudagrass: 50
bermuda-grass; [4]
  Plant response rating, Bermudagrass: 65
bermuda-grass; [5]
  Plant response rating, Bermudagrass: 98
bermuda-grass; [6]
  Plant response rating, Bermudagrass: 98
bermuda-grass; Rate 250 g/ha
  Plant response rating, Bermudagrass: 98
bermuda-grass; Rate 500 g/ha
  Plant response rating, Bermudagrass: 100
Common pursiane; [3]
  Plant response rating, C. purslane: 0
Common pursiane; [4]
  Plant response rating, C. purslane: 0
Common pursiane; [5]
  Plant response rating, C. purslane: 0
Common pursiane; [6]
  Plant response rating, C. purslane: 0
Common pursiane; Rate 250 g/ha
  Plant response rating, C. purslane: 0
Common pursiane; Rate 500 g/ha
  Plant response rating, C. purslane: 0
Common ragweed; [3]
  Plant response rating, C. ragweed: 0
Common ragweed; [4]
  Plant response rating, C. ragweed: 0
Common ragweed; [5]
  Plant response rating, C. ragweed: 0
Common ragweed; [6]
  Plant response rating, C. ragweed: 0
Common ragweed; Rate 250 g/ha
  Plant response rating, C. ragweed: 0
Common ragweed; Rate 500 g/ha
  Plant response rating, C. ragweed: 0
Common groundsel; [3]
  Plant response rating, Com. groundsel: 0
Common groundsel; [4]
  Plant response rating, Com. groundsel: 0
Common groundsel; [5]
  Plant response rating, Com. groundsel: 0
Common groundsel; [6]
  Plant response rating, Com. groundsel: 0
Common groundsel; Rate 250 g/ha
  Plant response rating, Com. groundsel: 0
Common groundsel; Rate 500 g/ha
  Plant response rating, Com. groundsel: 100
dallisgrass; [3]
  Plant response rating, Dallisgrass: 0
dallisgrass; [4]
  Plant response rating, Dallisgrass: 0
dallisgrass; [5]
  Plant response rating, Dallisgrass: 50
dallisgrass; [6]
  Plant response rating, Dallisgrass: 60
dallisgrass; Rate 250 g/ha
  Plant response rating, Dallisgrass: 80
dallisgrass; Rate 500 g/ha
  Plant response rating, Dallisgrass: 100
guineagrass; [3]
  Plant response rating, Guineagrass: 30
guineagrass; [4]
  Plant response rating, Guineagrass: 30
guineagrass; [5]
  Plant response rating, Guineagrass: 40
guineagrass; [6]
  Plant response rating, Guineagrass: 75
guineagrass; Rate 250 g/ha
  Plant response rating, Guineagrass: 98
guineagrass; Rate 500 g/ha
  Plant response rating, Guineagrass: 98
itchgrass; [3]
  Plant response rating, Itchgrass: 20
itchgrass; [4]
  Plant response rating, Itchgrass: 20
itchgrass; [5]
  Plant response rating, Itchgrass: 40
itchgrass; [6]
  Plant response rating, Itchgrass: 75
itchgrass; Rate 250 g/ha
  Plant response rating, Itchgrass: 75
Large crabgrass; [3]
  Plant response rating, Large crabgrass: 40
Large crabgrass; [4]
  Plant response rating, Large crabgrass: 40
Large crabgrass; [5]
  Plant response rating, Large crabgrass: 85
Large crabgrass; [6]
  Plant response rating, Large crabgrass: 98
Large crabgrass; Rate 250 g/ha
  Plant response rating, Large crabgrass: 98
Large crabgrass; Rate 500 g/ha
  Plant response rating, Large crabgrass: 100
Pitted morningglory; [3]
  Plant response rating, P. morninglory: 0
Pitted morningglory; [4]
  Plant response rating, P. morninglory: 0
Pitted morningglory; [5]
  Plant response rating, P. morninglory: 0
Pitted morningglory; [6]
  Plant response rating, P. morninglory: 0
Pitted morningglory; Rate 250 g/ha
  Plant response rating, P. morninglory: 0
Pitted morningglory; Rate 500 g/ha
  Plant response rating, P. morninglory: 0
Purple nutsedge; [3]
  Plant response rating, Purple nutsedge: 0
Purple nutsedge; [4]
  Plant response rating, Purple nutsedge: 0
Purple nutsedge; [5]
  Purple nutsedge plant response rating: 0
Purple nutsedge; [6]
  Purple nutsedge plant response rating: 0
Purple nutsedge; Rate 250 g/ha
  Plant response rating, Purple nutsedge: 0
Purple nutsedge; Rate 500 g/ha
  Plant response rating, Purple nutsedge: 0
Spanishneedles; [3]
  Plant response rating, Spanishneedles: 0
Spanishneedles; [4]
  Plant response rating, Spanishneedles: 0
Spanishneedles; [5]
  Spanishneedles plant response rating: 0
Spanishneedles; [6]
  Spanishneedles plant response rating: 0
Spanishneedles; Rate 500 g/ha
  Plant response rating, Spanishneedles: 0
Surinam grass; [4]
  Plant response rating, Surinam grass: 40
Surinam grass; [5]
  Surinam grass plant response rating: 40
Surinam grass; [6]
  Surinam grass plant response rating: 40
Surinam grass; Rate 250 g/ha
  Plant response rating, Surinam grass: 85
Surinam grass; Rate 500 g/ha
  Plant response rating, Surinam grass: 85
Green foxtail [1]; Rate 250 g/ha
  Plant response rating, Green foxtail: 100
Green foxtail [1]; Rate 500 g/ha
  Plant response rating, Green foxtail: 100
Green foxtail [2]; Preemergence; Rate 16 g/ha; 0 to 100 scale, 0 no injury, 100 complete control
  Plant response rating, Green foxtail: 0
Green foxtail [2]; Preemergence; Rate 32 g/ha; 0 to 100 scale, 0 no injury, 100 complete control
  Plant response rating, Green foxtail: 50
Green foxtail [2]; Rate 16 g/ha; Preemergence; 0 to 100 scale, 0 no injury, 100 complete control
  Plant response rating, Green foxtail: 0
Green foxtail [2]; [7]
  Green foxtail plant response rating: 85
  Plant response rating, Green foxtail: 85
Green foxtail [2]; [8]
  Green foxtail plant response rating: 85
  Plant response rating, Green foxtail: 85
Green foxtail [2]; Rate 250 g/ha; Preemergence; 0 to 100 scale
  Plant response rating, Green foxtail: 100
Green foxtail [2]; Rate 500 g/ha, Preemergence; 0 to 100 scale
  Plant response rating, Green foxtail: 100

— patent US6737383B1, “Herbicidal oxadiazolidines” (priority 1999, dated 2004)
